± gives the standard deviation of the averaged measurements.
Experiments:
[1] = compound: C[C@H](CN(C)C)Oc1nc(Nc2cc3cccc(Cl)c3cn2)cnc1C#N; assay: surviving fraction relative to DMSO-only wells; higher = less growth inhibition; conditions: exposure time: 5 days
How it was run: (§1)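 Log-phase tumour cells were seeded at 250–500 per well in 384-well plates and, from 24 hours after seeding, exposed continuously for five days to inhibitors at 0.5, 1, 5, 10, 50, 100, 500 and 1000 nM. Surviving fraction is CellTiter-Glo luminescence normalised to the median of DMSO-only wells. Luminescence was measured after 10 minutes at room temperature, and only lines screened three times with replicate Pearson r >0.7 and median Z' >0.3 were kept.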

BEZ-235 = compound: Cn1c(=O)n(-c2ccc(C(C)(C)C#N)cc2)c2c3cc(-c4cnc5ccccc5c4)ccc3ncc21 [BEZ-235]; assay: as above; conditions: exposure time: 5 days
How it was run: as §1

| Test System | surviving fraction ([1]; 0.5 nM) | surviving fraction ([1]; 1 nM) | surviving fraction ([1]; 5 nM) | surviving fraction ([1]; 10 nM) | surviving fraction ([1]; 50 nM) | surviving fraction ([1]; 100 nM) | surviving fraction ([1]; 500 nM) | surviving fraction ([1]; 1000 nM) | surviving fraction (BEZ-235; 0.5 nM) | surviving fraction (BEZ-235; 1 nM) | surviving fraction (BEZ-235; 5 nM) | surviving fraction (BEZ-235; 10 nM) | surviving fraction (BEZ-235; 50 nM) | surviving fraction (BEZ-235; 100 nM) | surviving fraction (BEZ-235; 500 nM) | surviving fraction (BEZ-235; 1000 nM) |
| --- | --- | --- | --- | --- | --- | --- | --- | --- | --- | --- | --- | --- | --- | --- | --- | --- |
| 22RV1 PROSTATE | 1.15 ± 0.15 | 1.02 ± 0.071 | 1.01 ± 0.074 | 1.06 ± 0.15 | 0.999 ± 0.046 | 0.887 ± 0.14 | 1.03 ± 0.037 | 0.838 ± 0.12 | 1.04 ± 0.047 | 1.02 ± 0.085 | 0.992 ± 0.097 | 0.949 ± 0.096 | 0.448 ± 0.025 | 0.339 ± 0.065 | 0.126 ± 0.017 | 0.119 ± 0.018 |
| 93VU HEADNECK | 0.995 ± 0.04 | 1.04 ± 0.079 | 1.04 ± 0.06 | 1.09 ± 0.039 | 1.03 ± 0.11 | 1.14 ± 0.1 | 0.865 ± 0.066 | 0.976 ± 0.09 | 0.972 ± 0.12 | 0.985 ± 0.13 | 1.1 ± 0.11 | 1.08 ± 0.059 | 0.921 ± 0.035 | 0.71 ± 0.1 | 0.308 ± 0.053 | 0.334 ± 0.043 |
| 143B BONE | 0.939 ± 0.1 | 1.08 ± 0.053 | 1.08 ± 0.035 | 1.05 ± 0.012 | 1.026 ± 0.0092 | 1.05 ± 0.024 | 0.519 ± 0.031 | 0.078 ± 0.021 | 1.03 ± 0.047 | 1.04 ± 0.047 | 1.031 ± 0.0028 | 1.0385 ± 0.00071 | 0.852 ± 0.033 | 0.735 ± 0.017 | 0.36 ± 0.017 | 0.336 ± 0.0028 |
| A549 LUNG | 1.04 ± 0.03 | 1.02 ± 0.02 | 1.02 ± 0.024 | 0.994 ± 0.018 | 1.09 ± 0.039 | 1.06 ± 0.039 | 0.967 ± 0.02 | 0.601 ± 0.027 | 0.997 ± 0.054 | 1.01 ± 0.052 | 1.01 ± 0.074 | 1.01 ± 0.083 | 1.03 ± 0.033 | 0.66 ± 0.022 | 0.26 ± 0.022 | 0.221 ± 0.0093 |
| ASKA SYNOVIAL | 1.05 ± 0.055 | 1.13 ± 0.083 | 1.11 ± 0.087 | 1.06 ± 0.082 | 0.994 ± 0.061 | 0.852 ± 0.041 | 0.432 ± 0.032 | 0.438 ± 0.0075 | 1.06 ± 0.03 | 0.994 ± 0.023 | 0.896 ± 0.032 | 0.9767 ± 0.0031 | 0.775 ± 0.046 | 0.652 ± 0.016 | 0.418 ± 0.02 | 0.436 ± 0.019 |
| BT20 BREAST | 1.14 ± 0.095 | 1.15 ± 0.081 | 1.22 ± 0.083 | 1.14 ± 0.072 | 1.19 ± 0.093 | 1.31 ± 0.072 | 1.35 ± 0.079 | 1.21 ± 0.093 | 1.13 ± 0.062 | 1.07 ± 0.18 | 1.04 ± 0.14 | 1.03 ± 0.082 | 0.619 ± 0.051 | 0.42 ± 0.087 | 0.265 ± 0.044 | 0.246 ± 0.031 |
| BT549 BREAST | 1.12 ± 0.055 | 1.14 ± 0.12 | 1.05 ± 0.1 | 1.1 ± 0.044 | 1.1 ± 0.076 | 0.896 ± 0.095 | 0.141 ± 0.024 | 0.0517 ± 0.011 | 1.06 ± 0.11 | 1.03 ± 0.032 | 1.03 ± 0.02 | 0.763 ± 0.22 | 0.699 ± 0.016 | 0.244 ± 0.073 | 0.136 ± 0.017 | 0.247 ± 0.29 |
| C33A CERVIX | 0.856 ± 0.057 | 0.979 ± 0.11 | 0.903 ± 0.041 | 0.994 ± 0.094 | 0.97 ± 0.074 | 0.937 ± 0.14 | 0.524 ± 0.04 | 0.814 ± 0.054 | 0.941 ± 0.029 | 0.984 ± 0.064 | 1.01 ± 0.098 | 0.993 ± 0.081 | 0.62 ± 0.043 | 0.349 ± 0.031 | 0.15 ± 0.016 | 0.14 ± 0.011 |
| CADOES1 SOFT TISSUE | 0.789 ± 0.054 | 0.94 ± 0.018 | 0.867 ± 0.069 | 0.894 ± 0.031 | 0.814 ± 0.14 | 0.726 ± 0.056 | 0.294 ± 0.048 | 0.148 ± 0.015 | 0.965 ± 0.1 | 0.996 ± 0.098 | 0.897 ± 0.03 | 0.99 ± 0.078 | 0.531 ± 0.11 | 0.28 ± 0.063 | 0.128 ± 0.007 | 0.0853 ± 0.01 |
| CAL51 BREAST | 0.939 ± 0.051 | 0.961 ± 0.065 | 1.03 ± 0.025 | 0.922 ± 0.047 | 0.982 ± 0.062 | 0.855 ± 0.053 | 0.272 ± 0.049 | 0.123 ± 0.037 | 0.92 ± 0.025 | 0.958 ± 0.035 | 0.902 ± 0.086 | 0.894 ± 0.056 | 0.453 ± 0.032 | 0.279 ± 0.018 | 0.097 ± 0.005 | 0.0853 ± 0.0042 |
| CAL72 BONE | 1.06 ± 0.1 | 1.08 ± 0.13 | 1.06 ± 0.099 | 1.03 ± 0.12 | 1.09 ± 0.1 | 0.981 ± 0.12 | 0.402 ± 0.076 | 0.137 ± 0.037 | 1.05 ± 0.026 | 1.06 ± 0.041 | 1.07 ± 0.043 | 1.03 ± 0.041 | 0.754 ± 0.053 | 0.369 ± 0.021 | 0.142 ± 0.011 | 0.124 ± 0.0079 |
| CAL120 BREAST | 0.928 ± 0.063 | 0.922 ± 0.076 | 0.965 ± 0.057 | 0.934 ± 0.047 | 0.957 ± 0.069 | 0.917 ± 0.03 | 0.9 ± 0.07 | 0.745 ± 0.027 | 0.962 ± 0.022 | 0.9768 ± 0.0038 | 0.98 ± 0.011 | 0.911 ± 0.017 | 0.502 ± 0.029 | 0.296 ± 0.0058 | 0.102 ± 0.0053 | 0.0963 ± 0.0037 |
| CASKI CERVIX | 0.839 ± 0.052 | 0.909 ± 0.086 | 0.959 ± 0.032 | 0.922 ± 0.02 | 1.009 ± 0.01 | 0.9417 ± 0.0087 | 0.217 ± 0.011 | 0.12 ± 0.01 | 0.872 ± 0.028 | 0.922 ± 0.016 | 0.896 ± 0.065 | 0.882 ± 0.081 | 0.452 ± 0.021 | 0.292 ± 0.0061 | 0.127 ± 0.0064 | 0.096 ± 0.0036 |
| CHLA90 AUTONOMIC GANGLIA | 0.977 ± 0.064 | 0.961 ± 0.058 | 0.913 ± 0.041 | 0.912 ± 0.034 | 0.94 ± 0.048 | 0.904 ± 0.075 | 0.46 ± 0.084 | 0.236 ± 0.048 | 0.983 ± 0.078 | 1 ± 0.033 | 0.979 ± 0.057 | 0.947 ± 0.05 | 0.644 ± 0.046 | 0.428 ± 0.024 | 0.175 ± 0.0087 | 0.106 ± 0.0023 |
| CME SYNOVIAL | 1.21 ± 0.15 | 1.3 ± 0.16 | 1.28 ± 0.11 | 1.36 ± 0.18 | 1.32 ± 0.11 | 1.47 ± 0.17 | 1.14 ± 0.059 | 1.02 ± 0.15 | 1.18 ± 0.12 | 1.28 ± 0.12 | 1.16 ± 0.066 | 1.26 ± 0.11 | 1.3 ± 0.11 | 1.12 ± 0.087 | 0.959 ± 0.076 | 0.713 ± 0.14 |
| COLO320DM LARGE INTESTINE | 1.04 ± 0.17 | 1.07 ± 0.09 | 1.01 ± 0.069 | 1.13 ± 0.068 | 1.06 ± 0.066 | 0.896 ± 0.084 | 0.235 ± 0.027 | 0.154 ± 0.027 | 1.06 ± 0.059 | 1.12 ± 0.08 | 1.14 ± 0.074 | 1.06 ± 0.039 | 0.869 ± 0.07 | 0.692 ± 0.034 | 0.328 ± 0.018 | 0.192 ± 0.0043 |
| DU4475 BREAST | 1 ± 0.29 | 0.794 ± 0.19 | 0.918 ± 0.04 | 0.753 ± 0.064 | 0.777 ± 0.2 | 1.18 ± 0.25 | 0.476 ± 0.076 | 0.337 ± 0.095 | 0.914 ± 0.16 | 1.05 ± 0.13 | 0.919 ± 0.16 | 0.835 ± 0.1 | 0.525 ± 0.064 | 0.194 ± 0.018 | 0.0427 ± 0.0085 | 0.035 ± 0.0035 |
| H23 LUNG | 1 ± 0.058 | 0.99 ± 0.033 | 1 ± 0.064 | 0.989 ± 0.024 | 1.06 ± 0.082 | 1.02 ± 0.038 | 1 ± 0.092 | 0.919 ± 0.079 | 1.02 ± 0.051 | 1.04 ± 0.081 | 0.961 ± 0.057 | 0.903 ± 0.042 | 0.496 ± 0.055 | 0.382 ± 0.033 | 0.22 ± 0.015 | 0.194 ± 0.0072 |
| HCC78 LUNG | 0.677 ± 0.09 | 0.908 ± 0.11 | 0.832 ± 0.17 | 0.984 ± 0.022 | 0.832 ± 0.15 | 0.919 ± 0.12 | 0.317 ± 0.1 | 0.131 ± 0.041 | 0.953 ± 0.086 | 0.943 ± 0.17 | 1.05 ± 0.23 | 1.09 ± 0.15 | 0.621 ± 0.18 | 0.393 ± 0.05 | 0.0757 ± 0.011 | 0.0527 ± 0.01 |
| HCC202 BREAST | 1.08 ± 0.39 | 1.03 ± 0.41 | 1.22 ± 0.065 | 1.01 ± 0.022 | 0.984 ± 0.052 | 0.886 ± 0.34 | 0.413 ± 0.071 | 0.376 ± 0.04 | 1.02 ± 0.32 | 1.07 ± 0.036 | 1.21 ± 0.22 | 1.34 ± 0.32 | 1.07 ± 0.32 | 0.722 ± 0.27 | 0.388 ± 0.089 | 0.232 ± 0.046 |
